According to article PMC7849180 (Frontiers in Pharmacology, 2020):
pIC50: −log10 of the molar value. Like-named read-outs stand apart in the source and are kept apart here.

Assays:
Ba/F3-EpoR cell line = assay: Cell activity of Ba/F3-EpoR cell line; type: cell-based; settings: read-out: IC50, inhibition of cell activity
Description: Suzhou Zelgen Biopharmaceuticals Co., Ltd. Jaktinib Hydrochloride Tablets Chemical Drug Class 1 New Drug and ZG0178. However, the inhibitory effect on the activity of Ba/F3-EpoR cell line […]
respectively. Obviously, this selective inhibition is associated with the aberrant expression of JAK2 in Ba/F3-EpoR-JAK2V617F mutant cells, and the degree of ZG0163 inhibition on JAK-STAT signaling pathway in this cell line. […]
cells, and the effects of ZG0163 was similar to those of positive control compounds, […]
In Vitro Inhibitory Effect of ZG0128 on Cell Lines Transfected with Oncogenes and Primary Blood Cells in Patients with Polycythemia Vera
In vitro cell culture assay was used to determine whether compound ZG0128 […]
cell line harboring a JAK2V617F mutation, and 8 HCD-57 cell lines stably transfected with oncogenic mutations JAK2V617F, MPLW515L, KITD816V, NPM-ALK, FLT3-ITD, FLT3D835H, FLT3D835Y and KRasG12V, respectively. In addition, study the inhibitory effects of compound ZG0128 on the growth of hematopoietic progenitor cells in patients with polycythemia vera.
9 cell lines were similar to those of positive control drug ZG0192. At the sub-micromolar concentration, both compounds ZG0128 and ZG0192 were able to […]
the growth of HCD-57 cells transfected with oncogenic mutations JAK2V617F, […]
spectrum inhibitory effect on tyrosine kinases. […]

[1] = Accumulated excretion recovery in urine and feces; type: in vivo, human; settings: 200 mg jaktinib fasted
Procedure: For MAD cohorts, blood samples were collected at 0, 0.25, 0.5, 1, 1.5, 2, 3, 4, 5, 6, 8 and 12 h on day 1; 0 h on day 2, 3, 4, 6 and 7; 0, 0.25, 0.5, 1, 1.5, 2, 3, 4, 5, 6, 8, 12, 24, 36 and 48 h on day 10. In food effect cohort, blood samples were collected at 0, 0.25, 0.5, 1, 1.5, 2, 3, 4, 5, 6, 8, 12, 24, 36, 48, 72, 96 and 120 h in period one of group A; 0, 0.25, 0.5, 1, 1.5, 2, 3, 4, 5, 6, 8, 12, 24, 36 and 48 h in period two of group A and the two periods of group B. Blood samples were centrifuged at 3,000 rpm for 10 min at 2–8 °C and stored at -80 °C until liquid chromatography-mass spectrophotometry (LC-MS/MS) analysis. Urine and feces samples were collected in period one of group A of food effect cohort with the intervals 0, 0–6, 6–12, 12–24, 24–48, 48–72, 72–96, 96–120 and 0–120 h, respectively.
Urine and feces PK parameter was accumulated excretion recovery ratio from time zero to 120 h (Fe0–120h).

[2] = Single-dose oral toxicity; type: in vivo, Beagle dogs
Procedure: (§1) Suzhou Zelgen Biopharmaceuticals Co., Ltd. Jaktinib Hydrochloride Tablets Chemical Drug Class 1 New Drug
During the trial, the general conditions of the […]
measured once on days 3, 7, and 13, respectively. After 14 days of observation, the […]
and blood biochemistry tests. All rats were euthanized for gross anatomy. […]
after drug administration. […] During the […]
biochemistry tests were performed on days 2 and 15. After 14 days of observation, all dogs were anesthetized and euthanized for gross anatomy. Blood samples were […]
administration in ZG0128 dose groups. LC-MS/MS was used to measure the […]
AUClast, Cmax, Tmax, and other toxicokinetic parameters.

test strains = assay: Ames test; settings: 9.76–6100 μg/mL, with or without S9
Description: Suzhou Zelgen Biopharmaceuticals Co., Ltd. Jaktinib Hydrochloride Tablets

[3] = Metabolic stability in liver microsomes; type: in vitro ADME, human
Procedure: (§2) The metabolic stability of ZG0128 (the dihydrochloride monohydrate of ZG0163) was evaluated using human, monkey, dog, rat, and mouse liver microsomes as the in vitro models. The percentages of residues for ZG0128 after incubating in human, monkey, dog, rat, and mouse liver microsomes for 60 minutes was 55.5%, 63.1%, 67.1%, 80.3%, and 79.0%, respectively. The CLint values of in vivo clearance were calculated to be 24.1, 21.6, 33.4, 10.7, 26.0 mL/min/kg, respectively. Thus its was speculated that ZG0128 was a medium clearance drug in humans, monkeys, and mice, a high clearance drug in dogs, and a low clearance drug in rats.
(§3) Using UPLC-UV/Q-TOF MS, the potential metabolites of ZG0128 in various liver microsomes (human, monkey, dog, rat and mouse liver microsomes) incubation systems were identified and the metabolic pathways of ZG0128 were speculated. The main metabolite of ZG0128 in above five types of liver microsomes were primary alcohol metabolite formed by morpholine ring-opening (M3). […]

[4] = General physicochemical properties
Description: as §1
Table 5. General physicochemical properties of Jaktinib hydrochloride […]
Appearance Yellow to orange crystalline powder; Odorless; Bitter taste […]
methylpyrrolidone; soluble in N, N-dimethyl formamide; […]
acetonitrile, dioxane, tert-butyl methyl ether or water
Jaktinib dihydrochloride monohydrate is a crystalline solid
Crystal Form containing two molecules of hydrogen chloride and one molecule of water of crystallization, with its crystal form being polymorph

[5] = Metabolic stability in liver microsomes; type: in vitro ADME, dog
Procedure: as §2, §3

myelofibrosis = assay: Myelofibrosis in JAK2V617F bone marrow transplanted mice; type: in vivo; settings: 100 mg/kg, 5 weeks
[6] = Metabolic stability in liver microsomes; type: in vitro ADME, mouse
Procedure: as §2, §3

With Jaktinib as the molecule, how does the pIC50 (Ba/F3-EpoR cell line) read?
The pIC50 was 5.82.

And the “Fe0–120h in urine and feces, total of jaktinib and metabolites” value [1]?
The value was 19.478%.

What about the “Feces-Fe0–120h, total of jaktinib and metabolites” value [1] of the same molecule?
Its value is 15.350%.

And the “Urine-Fe0–120h, total of jaktinib and metabolites” value [1]?
The value was 4.128%.

What about the “Feces-Fe0–120h, geometric mean” value ([1]; n = 6) of the same molecule?
The value was 12.681%.

And the “Total Fe0–120h (urine and feces)” value ([1]; n = 6)?
Its value is 12.813%.

What about the “Urine-Fe0–120h, geometric mean” value ([1]; n = 6) of the same molecule?
The value was 0.132%.

What about the AUC0-t ([2]; single oral 366 mg/kg ZG0128) of the same molecule?
Its AUC0-t is 10215 ± 10044 ng/mL.

And the AUC0-t ([2]; single oral 1220 mg/kg ZG0128)?
Its AUC0-t is 19752 ± 9998 ng/mL.

Which Ames test result (test strains) does the source give for Cl.Cl.O.[2H]C1([2H])COCC([2H])([2H])N1c1ccc(Nc2nccc(-c3ccc(C(=O)NCC#N)cc3)n2)cc1 [ZG0128, Jaktinib Dihydrochloride Monohydrate] here?
The Ames test result was “negative”.

What about the “CLint of in vivo clearance” value [3] of the same molecule?
The value was 24.1 mL/min/kg.

What about the “percentage of residue after 60 minutes” value [3] of the same molecule?
Its value is 55.5%.

What about the Hygroscopicity [4] of the same molecule?
Its Hygroscopicity is “Slightly hygroscopic”.

What about the Solubility ([4]; 0.1 mol/L hydrochloric acid) of the same molecule?
The Solubility was “slightly soluble”.

And the Solubility ([4]; dimethyl sulfoxide)?
The Solubility was “freely soluble”.

What about the Solubility ([4]; ethanol) of the same molecule?
Its Solubility is “slightly soluble in ethanol”.

And the Solubility ([4]; methanol)?
The Solubility was “slightly soluble”.

What about the Solubility ([4]; water) of the same molecule?
Its Solubility is “practically insoluble”.

And the “maximum tolerated dose (MTD)” value ([2]; single oral dose)?
The value was 1220 mg/kg.

What about the “CLint of in vivo clearance” value [5] of the same molecule?
The value was 33.4 mL/min/kg.

And the “percentage of residue after 60 minutes” value [5]?
The value was 67.1%.

What about the progression of myelofibrosis (myelofibrosis) of the same molecule?
The progression of myelofibrosis was “significantly and effectively inhibited the progression of myelofibrosis”.

What about the “CLint of in vivo clearance” value [6] of the same molecule?
Its value is 26.0 mL/min/kg.

What about the “percentage of residue after 60 minutes” value [6] of the same molecule?
The value was 79.0%.
